The text below walks through data of patent US20220213092A1, “BICYCLIC PYRAZOLE BRUTON'S TYROSINE KINASE INHIBITORS” (AbbVie Inc., priority 2020, published 2022).

Like-named read-outs stand apart in the source and are kept apart here.

This assay deals with T1, TEC (Homo sapiens, UniProt P42680).
T1 sequence (P42680 1-631): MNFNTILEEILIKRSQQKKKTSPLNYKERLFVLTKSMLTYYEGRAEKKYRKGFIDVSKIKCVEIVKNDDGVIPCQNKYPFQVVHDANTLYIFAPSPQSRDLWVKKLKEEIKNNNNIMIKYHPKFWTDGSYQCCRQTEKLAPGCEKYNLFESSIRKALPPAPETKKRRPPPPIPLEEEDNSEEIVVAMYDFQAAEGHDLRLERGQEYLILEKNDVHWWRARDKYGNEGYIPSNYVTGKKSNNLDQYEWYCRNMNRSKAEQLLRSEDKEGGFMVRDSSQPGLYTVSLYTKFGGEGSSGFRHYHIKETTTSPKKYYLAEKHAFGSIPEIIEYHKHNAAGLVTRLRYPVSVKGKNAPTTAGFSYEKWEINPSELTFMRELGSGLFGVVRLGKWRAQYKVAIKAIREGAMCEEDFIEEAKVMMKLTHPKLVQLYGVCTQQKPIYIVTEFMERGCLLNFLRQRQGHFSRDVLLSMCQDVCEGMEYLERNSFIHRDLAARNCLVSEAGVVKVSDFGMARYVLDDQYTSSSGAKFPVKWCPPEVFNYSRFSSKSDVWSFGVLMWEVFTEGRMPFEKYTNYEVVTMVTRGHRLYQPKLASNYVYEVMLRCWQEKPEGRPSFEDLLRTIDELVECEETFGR
Kind of assay: Other kinase MSA: TEC. It counts as biochemical. As to the method: Kinase activity, unless otherwise indicated, was measured in vitro using an electrophoretic mobility shift assay (MSA). The phosphorylation of a peptide substrate by BTK and other kinases was measured. The kinase reactions were assembled in a total volume of 25 μL per well in 384 well plates. The following was added to each well: compound buffer (or control); enzyme buffer; and substrate buffer, as further described below. […]
Enzyme and compound/inhibitor were optionally pre-incubated. […] The kinase activity for the kinases in Table 3 were measured at 3 hours incubation time, except that in the case of MAP2K1 and MAP2K2 assay, pre-activation of ERK was done for 30 min with 6 μM of ATP, and then the detection of activated ERK in the presence of compounds was done after 60 minutes of incubation.
The terminated reactions were analyzed using a 12 channel LABCHIP® 3000 microfluidic detection instrument (available from Caliper Life Sciences, Waltham, Mass.). […] As substrate and product peptides were separated, two peaks of fluorescence were observed. Change in the relative fluorescence intensity of the substrate and product peaks was the parameter measured, reflecting enzyme activity. […] Capillary electrophoregrams (RDA acquisition files) were analyzed using HTS Well Analyzer software (available from Caliper Life Sciences, Waltham, Mass.). […]

Consider `C=CC(=O)N1CCC([C@@H]2CCNc3c(C(N)=O)c(-c4ccc(Oc5ccccc5)cc4)nn32)CC1` [Compound A, reference compound], for which the IC50 (commonly the midpoint of a concentration-inhibition curve) (50 μM ATP, SRCtide substrate, 3 hours, read-out: IC50, Enzyme TEC) stood at 0.8 nM.

`C=CC(=O)N1CCN([C@@H]2CCNc3c2nn(-c2ccc(Oc4ccccc4)cc2)c3C(N)=O)CC1` [Example 6, (7R)-2-(4-phenoxyphenyl)-7-[4-(prop-2-enoyl)piperazin-1-yl]-4,5,6,7-tetrahydro-2H-pyrazolo[4,3-b]pyridine-3-carboxamide]: it took 14.7 nM to reach half-maximal inhibition (IC50).
